US9597310B2, “Indanyloxydihydrobenzofuranylacetic acids” (Boehringer Ingelheim International GmbH, priority 2012, dated 2017)

Legend:
[1] = Chemical stability (degradation kinetics) in acidic aqueous media, HPLC recovery rate; format: physicochemical; details: pH value of ca. 1.2, acetonitrile/0.1 M aqueous HCl (2:3), 37° C.
Experimental: Degradation kinetics is used to simulate chemical stability of compounds in the acidic part of the gastro intestinal tract.
The chemical stability of the compounds of the invention at pH value of ca. 1.2 is determined as follows:
Compound is dissolved in an HPLC vial either in a mixture of acetonitrile/0.1 M aqueous HCl (2:3; pH ca. 1.2) or in a mixture of acetonitrile/McIlvaine buffer pH 7.4 (2:3) to get a concentration of approximately 0.25 mg/ml. The vial was then transferred into an HPLC autosampler system and maintained at a temperature of 37° C. A first sample is taken and injected immediately into a standard HPLC system with a UV DAD detector. Further samples are injected after 2, 4, 6, 8 and 10 hours. Degradation of the compound is measured by determining the recovery rate of compound [%] for each injection using an HPLC standard gradient method. Therefore the peak area of the main peak for the first injection (AUt0) is determined and set as 100%. Peak area of the main peak is determined also for the further injections (AUtn, n=2, 4, 6, 8, 10) and expressed as fraction of […] [%].

human GPR40 receptor = human GPR40 receptor (Homo sapiens (Human), UniProt O14842); experiment: IP1 accumulation measurements using the IPOne assay system; format: cell-based; details: 1321N1 cells stably expressing human GPR40 receptor, 1 h stimulation
human GPR40 receptor, sequence (O14842 whole entry): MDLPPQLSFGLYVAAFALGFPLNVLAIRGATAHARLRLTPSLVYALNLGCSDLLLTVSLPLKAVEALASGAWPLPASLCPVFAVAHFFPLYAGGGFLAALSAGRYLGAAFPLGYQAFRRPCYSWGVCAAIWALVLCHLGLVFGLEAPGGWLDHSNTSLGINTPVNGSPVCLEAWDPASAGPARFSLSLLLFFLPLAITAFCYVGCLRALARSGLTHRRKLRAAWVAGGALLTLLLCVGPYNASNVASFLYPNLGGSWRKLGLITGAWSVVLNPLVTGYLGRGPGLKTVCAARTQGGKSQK
Experimental: IP1 accumulation measurements using the IPOne assay system—1321N1 cells stably expressing human GPR40 receptor (Euroscreen, Belgium) are seeded 24 h before the assay in white 384-well plates in culture medium containing 10% FCS, 1% Na-Pyruvate and 400 μg/mL G418. IP1 is assayed according to the manufacturer's description (Cisbio Bioassays, France). In brief, the assay is started by substitution of the culture medium by stimulation buffer (Hepes 10 mM, CaCl2 1 mM, MgCl2 0.5 mM, KCl 4.2 mM, NaCl 146 mM, glucose 5.5 mM and LiCl 50 mM, pH 7.4). Cells are stimulated for 1 h at 37° C., 5% CO2 by addition of the compounds that are diluted in stimulation buffer containing LiCl. Assays are stopped by adding HTRF-conjugates (IP1-d2 and Anti-IP1 cryptate Tb) and lysis buffer, provided by the manufacturer. After an incubation time of 1 h at room temperature plates are measured using an EnVision™, Perkin Elmer. The obtained fluorescence ratios at 665/615 […] are then used to calculate the pEC50 values using Assay Explorer 3.3 Software (Accelrys, Inc.) by interpolation using an IP1 reference curve and subsequent sigmoidal curve fitting allowing for a variable hill slope.

| Compound | Recovery rate after 2 h [1] | EC50 (human GPR40 receptor) |
| --- | --- | --- |
| O=C(O)C[C@@H]1COc2cc(O[C@@H]3CCc4c(Oc5ccc6c(c5)CCO6)ccc(F)c43)ccc21 [Example 11, {(S)-6-[(R)-4-(2,3-Dihydro-benzofuran-5-yloxy)-7-fluoro-indan-1-yloxy]-2,3-dihydro-benzofuran-3-yl}-acetic acid] | 96.5% | 6 nM |
| O=C(O)C[C@@H]1COc2cc(O[C@@H]3CCc4c(Oc5ccc(C(=O)N6CCCC6)cc5)ccc(F)c43)ccc21 [Example 9, [(S)-6-{(R)-7-Fluoro-4-[4-(pyrrolidine-1-carbonyl)-phenoxy]-indan-1-yloxy}-2,3-dihydro-benzofuran-3-yl]-acetic acid] | >99% | 18 nM |
| CC(C)(O)CCOc1ccc(Oc2ccc(F)c3c2CC[C@H]3Oc2ccc3c(c2)OC[C@H]3CC(=O)O)cc1 [Example 2, [(S)-6-{(R)-7-Fluoro-4-[4-(3-hydroxy-3-methyl-butoxy)-phenoxy]-indan-1-yloxy}-2,3-dihydro-benzofuran-3-yl]-acetic acid] | >98% | 5 nM |
| O=C(O)C[C@@H]1COc2cc(OC3CCc4ccccc43)ccc21 (stereo partly drawn) [XX, reference compound] | <5% |  |
| COCCOc1ccc(Oc2ccc(F)c3c2CC[C@H]3Oc2ccc3c(c2)OC[C@H]3CC(=O)O)cc1 [Example 1, [(S)-6-{(R)-7-Fluoro-4-[4-(2-methoxy-ethoxy)-phenoxy]-indan-1-yloxy}-2,3-dihydro-benzofuran-3-yl]-acetic acid] | 97.5% | 7 nM |
| CC(C)(O)COc1ccc(Oc2ccc(F)c3c2CC[C@H]3Oc2ccc3c(c2)OC[C@H]3CC(=O)O)cc1 [Example 3, [(S)-6-{(R)-7-Fluoro-4-[4-(2-hydroxy-2-methyl-propoxy)-phenoxy]-indan-1-yloxy}-2,3-dihydro-benzofuran-3-yl]-acetic acid] | 97.5% | 13 nM |
| CC(C)c1cccc2c1CC[C@H]2Oc1ccc2c(c1)OC[C@H]2CC(=O)O [XXI, reference compound] | <5% |  |
| CCNC(=O)c1ccc(Oc2ccc(F)c3c2CC[C@H]3Oc2ccc3c(c2)OC[C@H]3CC(=O)O)cc1 [Example 12, {(S)-6-[(R)-4-(4-Ethylcarbamoyl-phenoxy)-7-fluoro-indan-1-yloxy]-2,3-dihydro-benzofuran-3-yl}-acetic acid] | >99% | 18 nM |
| CC(=O)Nc1cccc(Oc2ccc(F)c3c2CC[C@H]3Oc2ccc3c(c2)OC[C@H]3CC(=O)O)c1 [Example 6, {(S)-6-[(R)-4-(3-Acetylamino-phenoxy)-7-fluoro-indan-1-yloxy]-2,3-dihydro-benzofuran-3-yl}-acetic acid] | >98% | 8 nM |
| CC(C)(O)CCOc1ccc(F)c(Oc2ccc(F)c3c2CC[C@H]3Oc2ccc3c(c2)OC[C@H]3CC(=O)O)c1 [Example 45, ((S)-6-{(R)-7-Fluoro-4-[2-fluoro-5-(3-hydroxy-3-methylbutoxy)phenoxy]-indan-1-yloxy}-2,3-dihydrobenzofuran-3-yl)-acetic acid] |  | 29 nM |
| O=C(O)C[C@@H]1COc2cc(O[C@@H]3CCc4c(Oc5cccc(N6CCCC6=O)c5)ccc(F)c43)ccc21 [Example 57, ((S)-6-{(R)-7-Fluoro-4-[3-(2-oxopyrrolidin-1-yl)phenoxy]-indan-1-yloxy}-2,3-dihydrobenzofuran-3-yl)-acetic acid] |  | 4 nM |
